Data taken from patent publication US20200170968A1 (priority 2014, published 2020).

What was measured:
HIV-1 (IIIB) = assay: Inhibition of HIV-1 replication in CEM cells (giant cell / syncytia formation); type: cell-based; settings: for EC50: concentration required to protect CEM cells against the cytopathogenicity of HIV by 50%, HIV-1 (IIIB)
Experimental: (§1) CEM cells were suspended in fresh culture medium and infected with HIV-1 (IIIB) or HIV-2 (ROD) at 100 CCID50 per ml of cell suspension. 100 μl of the infected cell suspension were transferred to microplate wells, mixed with 100 μl of the appropriate dilutions of compounds, and further incubated at 37° C. After 4 days, giant cell formation was recorded microscopically and the number of giant cells was estimated as percentage of the number of giant cells present in the non-treated virus-infected cell cultures.

[1] = tested on: viral integration in TZM-b1 cells; assay: Infectivity assay in TZM-b1 cells (luciferase; viral integration); type: cell-based, HIV-1; settings: 10 mM; 40 h
Experimental: 1×10^5 TZM-b1 cells were infected with diluted virus suspension (see 2.3 Virus expression) in a total of 0.2 ml DMEM medium in the presence of NACA, an inhibition control (nevirapin) or a vehicle control (DMSO). After 40 h at 37° C., the cells were assayed in a Luminoskan Ascent (Thermo Labsystems) for luciferase activity using the OneGlo luciferase assay system (Promega).
To determine additional targets of NACA inhibition within early stage processes of viral integration (viral entry to integration into the host genome), an infectivity assay was performed. TZM-b1 cells contain a luciferase gene that is under control of the HIV-1 promoter. Upon viral entry, transcription and integration into the host genome, luciferase is expressed and can convert the added substrate to the fluorescent product. The amount of measured product is quantitatively correlated to the amount of integrated virus in the test culture.
For the data in FIG. 14, TZM-b1 cells were infected with a diluted virus suspension in a total of 0.2 ml DMEM medium in the presence of the 25 μM or 10 mM NACA, an inhibition control (nevirapin) or a vehicle control (DMSO). Additionally, one well was treated with medium only instead of the virus dilution (no virus, negative control). After 40 h, the cells were assayed for luciferase activity. […] P-values were calculated between the vehicle control and the individual treatments. […]

HIV-2 (ROD) = assay: Inhibition of HIV-2 replication in CEM cells (giant cell / syncytia formation); type: cell-based; settings: for EC50: concentration required to protect CEM cells against the cytopathogenicity of HIV by 50%, HIV-2 (ROD)
Experimental: as §1

U1 cells = assay: U1 cell viability and proliferation ([3H]-thymidine incorporation); type: cell-based; settings: HIV-infected U1 cells
Experimental: Chronically HIV-infected U1 cells (monocytes) were stimulated for 6 hours in the presence of NACA. Cytokines (IL-6, […]) or PMA were added and maintained in the cell cultures for 6 days, collecting supernatants daily. Cell viability and proliferation were checked by optical microscopy, and [3H]-thymidine incorporation, and calcein AM assay. Reverse transcriptase-polymerase chain reaction (RT-PCR) and reverse transcriptase (RT) activity assay as readout of virion production.

HIV-1 = assay: HIV replication in acutely infected PBMC / lymphocytes; type: cell-based
Experimental: In some embodiments, the present invention relates to a method for inhibiting HIV replication. Data is attached reporting the results of an HIV study in lymphocytes with 100% block of replication at 20 mM concentration.
(§2) Peripheral blood mononuclear cells (PBMC) were acutely infected with HIV-1 and stimulated with NACA. Cell viability was measured in HIV infected PBMCs with varying concentrations of NACA.

HIV infected PBMCs = assay: Cell viability of HIV infected PBMCs; type: cell-based; settings: varying concentrations of NACA
Experimental: as §2

HIV particles = assay: Infectivity of viral particles produced in the presence of NACA (TZM-b1 luciferase); type: cell-based
Experimental: (§3) To measure the infectivity of particles produced in the presence of the compounds, ACH-2 cells (1×10^6 cells/ml) were cultured with 100 nM PMA in the presence of the indicated amount of NACA or DMSO (negative control). After 3 days, the p24 content of the clarified supernatant (see 2.3 Virus expression) was measured. The supernatant was used for an infectivity test (see 2.4 Infectivity test) without the addition of any compound to the wells. The final dilution of the viral supernatant in the infectivity test was 1:100. A control experiment was performed, in which virus particles produced without the addition of NACA, were used for the infectivity test.
For the data in FIG. 15B, the clarified supernatant was further used for an infectivity test without the addition of any compound to the wells. The NACA amount stated in the graph refers to the amount in which the HIV producing cells were grown. TZM-b1 cells were infected with the diluted virus suspensions in a total of 0.2 ml DMEM (total dilution of virus supernatant: 1:100). After 40 h, the cells were assayed for luciferase activity. Additionally, a control experiment was performed, in which virus particles produced in the control set up, were used for the infectivity test. The same amount of NACA that could have been carried over with the virus containing supernatant in the original experiment was added to the infectivity test (final concentration: 1/100 of the indicated amount in the viral growth culture). The value for the control was set to 100% in each individual repeat and all other values were normalised these reference values. The data are means of three independent experiments; the error bars represent the SEM. P-values were calculated between the vehicle control and the individual treatments. P-values are indicated if significant (*: p<0.05; **: p<0.01; ***:p<0.001).

CEM cells [2] = assay: Cytostatic activity assay (cell proliferation, Coulter counter); type: cell-based; settings: Homo sapiens, CCRF-CEM, 72 h, 50% inhibitory concentration of cell proliferation
Experimental: The cytostatic activity assay was performed in 96-well microliter plates. 5-7.5×10^4 cells and a given amount of the test compound were added to each well. The cells were allowed to proliferate for 72 h at 37° C. is a humidified CO2-controlled atmosphere. At the end of the incubation period, the cells were counted in a Coulter counter. The IC50 (half maximal inhibitory concentration) was defined as the concentration of the compound that inhibited cell proliferation by 50%.

p24 in ACH-2 cells = assay: Production of viral particles (p24) in PMA-stimulated ACH-2 cells; type: cell-based, HIV; settings: ACH-2 cells with PMA, 3 days, indicated amounts of NACA
Experimental: ACH-2 cells (1×10^6 cells/ml) were cultured with 100 nM PMA. After three days the cell culture supernatant was collected, cleared by centrifugation at 300×g for 10 min and passed through a 0.45 μm filter. p24 content was measured in an Architect i2000SR (Abbott Laboratories, Ill., USA) as a measurement for virus content and supernatant was either used directly or frozen at −80° C. for later usage.
as §3
For the data in FIG. 15A, ACH-2 cells were cultured with […] in the presence of the indicated amount of NACA, DMSO (vector control=0 mM NACA) or no additive (control). After 3 days, the supernatant was clarified and the amount of p24 was measured by ELISA. […] P-values were calculated between the vehicle control and the individual treatments. […]

[3] = tested on: Chronically HIV-infected U1 cells (monocytes); assay: Reverse transcriptase (RT) activity as readout of virion production in chronically HIV-infected U1 cells; type: cell-based
CEM cells [4] = assay: Viability test (trypan blue); type: cell-based, Human; settings: concentrations up to 10 mM
Experimental: CEM cells (3×10^5 cells/ml) were seeded and grown in the presence or absence of indicated concentrations of NACA. The medium was replaced and added new NACA after two days. After 48 and 96 hours, respectively, aliquots of the cells were harvested and combined with trypan blue dye before analyzed microscopically on a hemocytometer counting chamber. Blue cells were counted as nonviable and to estimate the amount of viable cells the amount of live cells was compared to the total amount of cells.

[5] = molecular target: T1, recombinant HIV-1 protease (Human immunodeficiency virus type 1 group M subtype B, UniProt P04585); assay: Protease inhibition, SensoLyte HIV-1 protease assay kit; type: biochemical
T1 construct: Recombinant HIV-1 protease was purchased from AnaSpec Inc; purchased AnaSpec Inc
Experimental: The ability of NACA to inhibit the activity of recombinant HIV-1 protease was determined by a SensoLyte […] HIV-1 protease assay kit (AnaSpec Inc.) according to manufacturer's instructions: The compounds and the HIV-1 protease were added to a dark-bottom 96 well plate and the following controls were included: positive control (without NACA), inhibition control (pepstatin A), vehicle control (DMSO), NACA controls (to test for autofluorescence) and substrate control (assay buffer only). The plate as well as the HIV-1 protease substrate solution were incubated 15 minutes at 37° C. and 50 μl protease substrate was added to all wells. The fluorescence was measured at Ex/Em=490 nm/520 nm with a Varioskan Flash (Thermo Electron Corporation).
For the data shown in FIG. 13B, the HIV-1 protease together with NACA, a positive control (pepstatin A) or DMSO (vehicle control) were added to a dark-bottom 96 well plate. The plate as was incubated and protease substrate was added to all wells. The fluorescence was measured at Ex/Em=490 nm/520 nm. The value for the vector control (DMSO) was set to 100% in each individual repeat and all other values were normalized to this reference value. The data are means of three independent experiments; the error bars represent the SEM. P-values are indicated if significant (*: p<0.05; **: p<0.01; ***: p<0.001).

viral RT = molecular target: T2, viral RT (Human immunodeficiency virus type 1 group M subtype B, UniProt P04585); assay: Reverse transcriptase (RT) inhibition, Lenti RT Activity kit; type: biochemical, HIV; settings: 25 μM
T2 construct: endogenous in cells; host or cells: viral sample (virus-containing supernatant; probably from PMA-induced ACH-2 cells, inferred)
Experimental: The ability of the compounds to inhibit the activity of viral RT was determined by a Lenti RT Activity kit (Cavidi, Uppsala, Sweden) according to the manufacturer's instructions (protocol A): A poly-A plate was incubated with the reaction buffer for up to 1 h at 33° C. Afterwards, the viral sample together with NACA, an inhibition control (nevirapin) or a vehicle control (DMSO) were added and incubated overnight at 33° C. The plate was washed, exposed to the tracer for 90 min at 33° C. and washed again, before the substrate was added. The plate was incubated in the dark and subsequently read at 405 nm in a Multiskan RC (Labsystem).
For the data shown in FIG. 13A, a poly-A plate was incubated with the reaction buffer and subsequently, the viral sample (1:500 dilution) together with the NACA, nevirapin (inhibition control) or DMSO (vehicle control) was added and incubated overnight. The plate was exposed to the tracer and the substrate was added. The plate was incubated in the dark and read at 405 nm. The value for the vector control (DMSO) was set to 100% in each individual repeat and all other values were normalized to this reference value. The data shown in FIG. 13A are means of three independent experiments; the error bars represent the SEM. P-values are indicated if significant (*: p<0.05; **: p<0.01; ***: p<0.001).

For CC(=O)N[C@@H](CS)C(N)=O, the “Ratio IC50/EC50 (CEM) HIV-1” value (HIV-1 (IIIB); CEM cells) was 3, the EC50 (HIV-1 (IIIB); Human immunodeficiency virus 1, IIIB, CCRF-CEM) was about 230 µM and the EC50 (HIV-1 (IIIB)) was 224 ± 86 µM. For the same compound, the “effect on viral integration” value [1] was “more predominant effect”, the “Ratio IC50/EC50 (CEM) HIV-2” value (HIV-2 (ROD); CEM cells) was 2 and the EC50 (HIV-2 (ROD); Human immunodeficiency virus 2, CCRF-CEM) was about 230 µM. The EC50 (HIV-2 (ROD)) was 234 µM, the “U1 cell viability or proliferation as measured by [3H]-thymidine incorporation” value (U1 cells) was “did not have a large effect” and the “effect on HIV replication” value (HIV-1; HIV infected PBMCs) was “inhibitor effect”. The HIV replication inhibited (HIV-1; HIV infected PBMCs, concentrations of 10 mM and above) was about 100%, the block of replication (HIV-1; lymphocytes, 20 mM concentration) was 100% and the cell viability (HIV infected PBMCs) was “did not affect cell viability”. The “effect on infectivity when NACA was added after the production of the viral particles (NACA added)” value (HIV particles; final concentration 1/100 of the indicated amount) was “not visible”, the “infectivity of the particles produced in the presence of NACA (NACA grown)” value (HIV particles; higher concentrations (5 mM to 10 mM)) was “decreased significantly” and the “infectivity of the particles produced in the presence of NACA (NACA grown)” value (HIV particles; low concentrations (0 mM to 1 mM)) was “auxiliary effect”. The IC50 (CEM cells [2]) was about 564 µM, the “amount of p24” value (p24 in ACH-2 cells) was “not affected” and the reverse transcriptase activity ([3]; U1 cells activated with 1 ng/mL TNF-α or 10 ng/mL IL-6) was “significant reduction”. For the same compound, the “concentration effective in reducing HIV replication in activated U1 cells (RT activity)” value ([3]; U1 cells activated with 1 ng/mL TNT-α, 10 ng/mL IL-6 or 10 nM PMA) was 1 to 10 µM, the “relative amounts of reverse transcriptase activity” value ([3]; U1 cells, between days 3 and 5) was “did not alter” and the “concentration effective in reducing HIV replication in activated U1 cells” value ([3]; activated U1 cells) was 10 to 333 µM. The CEM cells alive (CEM cells [4]) was “more than 99%”, the “effect on viral protease activity” value ([5]; 25 μM) was “no effect” and the “effect on protease activity” value ([5]; 10 mM) was “significant effect”. The “effect on viral RT activity” value (viral RT) was “no effect”.
